Laboratory results published in article PMC9351465, “Mechanism-based heparanase inhibitors reduce cancer metastasis in vivo” (Proceedings of the National Academy of Sciences of the …, 2022).
pIC50: −log10 of the molar value. Where “and” joins values, the source holds several entries; their conditions need not be identical. Equal entries are not always repeated. Entries after “also recorded” stand apart in the source; their conditions may differ.

What was measured:
HPSE [1] = target: T1, HPSE (Homo sapiens, UniProt Q9Y251); experiment: competitive activity-based protein profiling (cABPP) with ABP 7, recombinant HPSE; details: recombinant HPSE 20 nM, 1 h preincubation at 37°C, then 100 nM ABP 7, pH 5.5
T1 sequence (Q9Y251 158-543 limits assumed): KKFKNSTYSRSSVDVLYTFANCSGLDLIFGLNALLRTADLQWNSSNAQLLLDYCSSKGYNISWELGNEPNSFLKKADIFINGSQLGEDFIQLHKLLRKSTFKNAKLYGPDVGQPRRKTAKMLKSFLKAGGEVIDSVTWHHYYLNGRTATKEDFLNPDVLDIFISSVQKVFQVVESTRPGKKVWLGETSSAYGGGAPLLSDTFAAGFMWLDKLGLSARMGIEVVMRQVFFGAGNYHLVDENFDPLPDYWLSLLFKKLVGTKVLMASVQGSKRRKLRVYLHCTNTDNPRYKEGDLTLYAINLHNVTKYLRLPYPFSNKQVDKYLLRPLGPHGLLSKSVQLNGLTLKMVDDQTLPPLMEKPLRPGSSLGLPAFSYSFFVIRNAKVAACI
T1 sequence (Q9Y251 36-109 limits assumed): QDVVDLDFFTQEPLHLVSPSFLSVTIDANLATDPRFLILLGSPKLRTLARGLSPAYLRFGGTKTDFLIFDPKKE

HPSE [2] = target: T1, HPSE; experiment: colorimetric fondaparinux cleavage assay; type: biochemical
Procedure: We next investigated the ability of our inhibitors to abrogate HPSE processing of its native oligosaccharide substrates, using a colorimetric assay that detects cleavage of the synthetic HS pentasaccharide fondaparinux ([49]). […]
Fondaparinux cleavage was performed essentially as previously described (9). Briefly, assays were carried out in 96 well plates (Nunc) pretreated with 4% BSA in TBS-T (20 mM Tris pH 7.4, […]
100 µL reactions were set up in 40 mM NaOAc pH 5.0 buffer, containing final concentrations of 200 ng/mL HPSE, 100 µM Fondaparinux (Arixtra) and specified concentrations of inhibitors.
Reactions were incubated at 37°C for 18 h, then quenched with 100 µL 0.1 M NaOH supplemented with 1.7 mM WST-1 tetrazolium salt, and incubated at 60°C for 1 h. Absorbance at 584 nm was read using an ELISA plate reader (BIO-TEK Instruments). All reactions were carried out in technical duplicate. Data were plotted and analyzed using Sigmaplot (Systat). […]

HPSE [3] = target: T1, HPSE; experiment: H35SPG basement membrane (ECM) digest by recombinant HPSE; type: biochemical; details: for inhibition of recombinant HPSE-mediated H35SPG cleavage: 200 ng HPSE, pH 6.0, 37°C, 5 h
Excerpt: Finally, we assessed our inhibitors against HPSE-mediated degradation of bona fide HSPGs in an ECM environment. Cultured bovine corneal endothelial cells secrete a subendothelial basement membrane material rich in proteoglycans, which can be radiolabeled by growth in the presence of ^35SO4^2− ([50]). Solubilized H^35S chains released from H^35SPGs by HPSE digestion can be resolved chromatographically, with HPSE inhibition leading to a corresponding loss of signal. […] We also tested inhibition of endogenous cellular HPSE using this assay format. […]
ECM coated 35 mm culture dishes containing 35S labelled HS were prepared as previously described (10). Briefly, bovine corneal endothelial cells were plated at an initial density of 2x10^5 cells/ml, with 4% dextran T-40 (Sigma) included in the growth medium. Na235SO4 (25 µCi/ml) was added to the incubation medium on days 2 and 5 after seeding. On day 12, subendothelial ECM is exposed by dissolving the cells with PBS containing 0.5% Triton X-100 and 20 mM NH4OH, followed by four washes with PBS.
(§1) For HS-degradation assays, ECM coated dishes were incubated with 200 ng recombinant HPSE in 1 mL reaction mixture (10 mM buffer Phosphate-Citrate pH 6.0, 50 mM NaCl, 1 mM DTT, 1 mM CaCl2) containing HPSE inhibitors or DMSO control. Plates were incubated at 37°C for 5 h, then assay medium collected and applied to a 0.9×30 cm Sepharose 6B size exclusion column. The Sepharose 6B column was eluted with PBS, and 35S radioactivity of 0.2 mL fractions quantitated using a liquid scintillation analyzer (Packard BioScience) (11). […]
Matrigel and […]
non-migrating cells in the upper side of the Boyden filter were removed by swabbing, then invading cells on the bottom side of the transwell filter imaged for analysis. […]
B16 melanoma - Twenty minutes before tumor cell inoculation, C57BL/J6 mice (n=5) were injected intraperitoneally with vehicle alone (PBS), compound 2 (300 nmol/mouse), or SST0001 (150 µg/mouse). Mice were subsequently intravenously inoculated with 1.5x105

[4] = target: exo-β-glucuronidase EcGUSB (Escherichia coli, UniProt P05804); experiment: cABPP with ABP 7, recombinant EcGUSB; details: competition with ABP 7
GUSB = target: T2, GUSB (Homo sapiens, UniProt P08236); experiment: cABPP of human platelet lysates, GUSB band; details: human platelet lysates containing both HPSE and GUSB
T2 sequence (P08236 23-651): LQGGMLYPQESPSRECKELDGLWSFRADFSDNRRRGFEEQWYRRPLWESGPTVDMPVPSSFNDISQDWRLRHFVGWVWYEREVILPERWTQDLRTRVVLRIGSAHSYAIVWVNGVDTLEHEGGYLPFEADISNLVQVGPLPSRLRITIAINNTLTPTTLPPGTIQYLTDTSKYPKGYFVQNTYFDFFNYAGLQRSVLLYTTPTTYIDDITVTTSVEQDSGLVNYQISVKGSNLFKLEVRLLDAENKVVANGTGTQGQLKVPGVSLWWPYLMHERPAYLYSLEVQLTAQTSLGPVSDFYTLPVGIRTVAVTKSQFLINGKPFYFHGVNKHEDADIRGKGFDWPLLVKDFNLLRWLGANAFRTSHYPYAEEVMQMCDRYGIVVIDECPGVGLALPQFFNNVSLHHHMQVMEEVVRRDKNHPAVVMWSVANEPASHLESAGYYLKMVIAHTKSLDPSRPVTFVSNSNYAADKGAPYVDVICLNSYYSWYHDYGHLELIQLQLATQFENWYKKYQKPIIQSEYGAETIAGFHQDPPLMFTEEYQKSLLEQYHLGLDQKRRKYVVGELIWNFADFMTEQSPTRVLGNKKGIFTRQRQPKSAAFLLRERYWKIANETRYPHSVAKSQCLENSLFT

U87 glioblastoma cells = experiment: Matrigel invasion assay; type: cell-based, human; details: 20 µM inhibitor, 4 h
Procedure: Preliminary in cellulo evaluations of our inhibitors’ effects on cancer aggression were conducted using a Matrigel invasion assay, which measures the ability of cells to migrate through transwell inserts coated with the ECM material Matrigel. Matrigel invasion by cells requires a broad complement of proteases and glycosidases, thereby mimicking some aspects of metastasis in vivo ([51]).
as §1
Cells in the upper chamber were separated by Matrigel from a lower chamber containing 600 µL DMEM, supplemented with 10% FBS. […] 10 randomly selected microscopic fields were recorded, and cell invasion calculated using ImageJ, by quantitating the percentage of the field stained by crystal violet. […]

human platelet HPSE = target: T3, human platelet HPSE (Homo sapiens, UniProt Q9Y251); experiment: cABPP of human platelet lysates, HPSE band
T3 sequence (Q9Y251 158-543 limits assumed): T1 sequence (Q9Y251 158-543 limits assumed)
T3 sequence (Q9Y251 36-109 limits assumed): T1 sequence (Q9Y251 36-109 limits assumed)

BpHep and AcGH79 = type: biochemical, Burkholderia pseudomallei; Acidobacterium capsulatum; details: recombinant enzymes, competition with ABP 7

O=C(O)[C@@H]1[C@@H](O)[C@H](O)[C@@H](O)[C@@H]2O[C@@H]21 [compound 1, glucuronyl-cyclophellitol]
HPSE inhibition (cABPP) (HPSE [1]): ineffective HPSE inhibitor up to 10 μM
HPSE inhibition, fondaparinux cleavage (HPSE [2]; at 50 μM): Little HPSE inhibition
inhibition of recombinant HPSE-mediated H35SPG cleavage (HPSE [3]): no HPSE inhibition was observed
EcGUSB inhibition (cABPP) [4]: inhibited
selectivity of GUSB inhibition in platelet lysates (GUSB): exclusively inhibited GUSB

CC(=O)N[C@H]1[C@@H](O[C@H]2[C@H](O)[C@@H](O)[C@@H]3O[C@@H]3[C@@H]2C(=O)O)O[C@H](COS(=O)(=O)O)[C@@H](O)[C@@H]1O [compound 3]
HPSE inhibition (cABPP) (HPSE [1]): nanomolar HPSE inhibition potencies; also recorded: greater potency than 2 and 4
pIC50 (HPSE [2]; 200 ng/mL HPSE, 100 µM fondaparinux, pH 5.0, 37°C, 18 h, n = 2, read-out: IC50, HPSE-mediated fondaparinux cleavage): 6.28 and ~6.29
inhibition of recombinant HPSE-mediated H35SPG cleavage (HPSE [3]): robust, dose-dependent inhibition
level of inhibition of H35SPG cleavage relative to 4.6 μM 10 (HPSE [3]; 1 μM 2 or 3 compared to 4.6 μM 10): comparable levels of inhibition
Matrigel invasion (% field stained) (U87 glioblastoma cells): significantly reduced Matrigel invasion
pIC50 (human platelet HPSE; HPSE IC50, human platelet lysates, cABPP, n = 3): ~7.22 and 7.25
selectivity of HPSE inhibition in platelet lysates (human platelet HPSE; human platelet lysates containing both HPSE and GUSB): highly selective inhibition of human platelet HPSE

O=C(O)[C@@H]1[C@@H](O[C@H]2O[C@H](CO)[C@@H](O)[C@H](O)[C@H]2O)[C@H](O)[C@@H](O)[C@@H]2O[C@@H]21 [compound 4]
HPSE inhibition (cABPP) (HPSE [1]): nanomolar HPSE inhibition potencies

N[C@H]1[C@@H](O[C@H]2[C@H](O)[C@@H](O)[C@@H]3O[C@@H]3[C@@H]2C(=O)O)O[C@H](CO)[C@@H](O)[C@@H]1O [compound 5]
HPSE inhibition (cABPP) (HPSE [1]): weaker inhibition
inhibition of BpHep and AcGH79 (cABPP) (BpHep and AcGH79): all compounds apart from 5 showing activity
